Converted amounts (≈) assume the structure as drawn.
How the values were obtained:
Type in all cases: functional
Tetranychus urticae [1] = assay: Resistance ratio, ratio of LC50 for larvae of Tetranychus urticae (two-spotted spider mite) mixed strain ALL-14 selected with spirodiclofen for 14 generations to LC50 for larvae of Tetranychus urticae (two-spotted spider mite) laboratory strain SAMB measured after 6 days
Tetranychus urticae [2] = assay: Acaricidal activity against larvae of Tetranychus urticae (two-spotted spider mite) greenhouse population TU7 in bean leaves assessed as mortality applied at 1 bar pressure measured after 6 days
Tetranychus urticae [3] = assay: Resistance ratio, ratio of LC50 for larvae of Tetranychus urticae (two-spotted spider mite) greenhouse population TU11 to LC50 for larvae of Tetranychus urticae laboratory strain SAMB measured after 6 days
Tetranychus urticae [4] = assay: Acaricidal activity against larvae of Tetranychus urticae (two-spotted spider mite) field population TU6 in bean leaves assessed as mortality applied at 1 bar pressure measured after 6 days
Tetranychus urticae [5] = assay: Acaricidal activity against larvae of Tetranychus urticae (two-spotted spider mite) laboratory strain SAMB in bean leaves assessed as mortality applied at 1 bar pressure measured after 6 days
Tetranychus urticae [6] = assay: Resistance ratio, ratio of LC50 for larvae of Tetranychus urticae (two-spotted spider mite) field population TU2 to LC50 for larvae of Tetranychus urticae laboratory strain SAMB measured after 6 days
Tetranychus urticae [7] = assay: Acaricidal activity against larvae of Tetranychus urticae (two-spotted spider mite) laboratory strain GSS in bean leaves assessed as mortality applied at 1 bar pressure measured after 6 days
Tetranychus urticae [8] = assay: Acaricidal activity against larvae of Tetranychus urticae (two-spotted spider mite) field population TU4 in bean leaves assessed as mortality applied at 1 bar pressure measured after 6 days
Tetranychus urticae [9] = assay: Acaricidal activity against larvae of Tetranychus urticae (two-spotted spider mite) greenhouse population TU11 in bean leaves assessed as mortality applied at 1 bar pressure measured after 6 days
Tetranychus urticae [10] = assay: Resistance ratio, ratio of LC50 for larvae of Tetranychus urticae (two-spotted spider mite) greenhouse population TU5 to LC50 for larvae of Tetranychus urticae laboratory strain SAMB measured after 6 days
Tetranychus urticae [11] = assay: Resistance ratio, ratio of LC50 for larvae of Tetranychus urticae (two-spotted spider mite) greenhouse population TU7 to LC50 for larvae of Tetranychus urticae laboratory strain SAMB measured after 6 days
Tetranychus urticae [12] = assay: Resistance ratio, ratio of LC50 for larvae of Tetranychus urticae (two-spotted spider mite) field population TU12 to LC50 for larvae of Tetranychus urticae laboratory strain SAMB measured after 6 days
Tetranychus urticae [13] = assay: Resistance ratio, ratio of LC50 for larvae of Tetranychus urticae (two-spotted spider mite) greenhouse population TU9 to LC50 for larvae of Tetranychus urticae laboratory strain SAMB measured after 6 days
Tetranychus urticae [14] = assay: Resistance ratio, ratio of LC50 for larvae of Tetranychus urticae (two-spotted spider mite) greenhouse population TU3 to LC50 for larvae of Tetranychus urticae laboratory strain SAMB measured after 6 days
Tetranychus urticae [15] = assay: Resistance ratio, ratio of LC50 for larvae of Tetranychus urticae (two-spotted spider mite) laboratory strain GSS to LC50 for larvae of Tetranychus urticae laboratory strain SAMB measured after 6 days
Tetranychus urticae [16] = assay: Acaricidal activity against larvae of Tetranychus urticae (two-spotted spider mite) greenhouse population TU5 in bean leaves assessed as mortality applied at 1 bar pressure measured after 6 days
Tetranychus urticae [17] = assay: Resistance ratio, ratio of LC50 for larvae of Tetranychus urticae (two-spotted spider mite) greenhouse population TU1 to LC50 for larvae of Tetranychus urticae laboratory strain SAMB measured after 6 days
Tetranychus urticae [18] = assay: Resistance ratio, ratio of LC50 for larvae of Tetranychus urticae (two-spotted spider mite) field population TU4 to LC50 for larvae of Tetranychus urticae laboratory strain SAMB measured after 6 days
Tetranychus urticae [19] = assay: Resistance ratio, ratio of LC50 for larvae of Tetranychus urticae (two-spotted spider mite) field population TU6 to LC50 for larvae of Tetranychus urticae laboratory strain SAMB measured after 6 days
Tetranychus urticae [20] = assay: Acaricidal activity against larvae of Tetranychus urticae (two-spotted spider mite) mixed strain ALL-14 selected with spirodiclofen for 14 generations in bean leaves assessed as mortality by applying constant selection pressure under laboratory conditions
Tetranychus urticae [21] = assay: Acaricidal activity against larvae of Tetranychus urticae (two-spotted spider mite) field population TU2 in bean leaves assessed as mortality applied at 1 bar pressure measured after 6 days
Tetranychus urticae [22] = assay: Acaricidal activity against larvae of Tetranychus urticae (two-spotted spider mite) greenhouse population TU9 in bean leaves assessed as mortality applied at 1 bar pressure measured after 6 days
Tetranychus urticae [23] = assay: Acaricidal activity against larvae of Tetranychus urticae (two-spotted spider mite) field population TU12 in bean leaves assessed as mortality applied at 1 bar pressure measured after 6 days
Tetranychus urticae [24] = assay: Acaricidal activity against larvae of Tetranychus urticae (two-spotted spider mite) greenhouse population TU3 in bean leaves assessed as mortality applied at 1 bar pressure measured after 6 days
Tetranychus urticae [25] = assay: Acaricidal activity against larvae of Tetranychus urticae (two-spotted spider mite) greenhouse population TU1 in bean leaves assessed as mortality applied at 1 bar pressure measured after 6 days

How did the RatioLC50 (Tetranychus urticae [1]) turn out when CCC(C)(C)C(=O)OC1=C(c2ccc(Cl)cc2Cl)C(=O)OC12CCCCC2 [SPIRODICLOFEN] was run?
The RatioLC50 was 4.3.

And the LC95 (Tetranychus urticae [2])?
The LC95 was 87.7 µg/mL (≈ 213 µM).

And the LC50 (Tetranychus urticae [2]; Tetranychus urticae, TU7, 144 h)?
The LC50 was 27 µg/mL (≈ 65.6 µM).

And the RatioLC50 (Tetranychus urticae [3])?
The RatioLC50 was 3.9.

What about the LC95 (Tetranychus urticae [4]) of the same molecule?
The LC95 was 2.3 µg/mL (≈ 5.59 µM).

And the LC50 (Tetranychus urticae [4]; Tetranychus urticae, TU6, 144 h)?
The LC50 was 0.5 µg/mL (≈ 1.22 µM).

What about the LC95 (Tetranychus urticae [5]) of the same molecule?
The LC95 was 7.8 µg/mL (≈ 19 µM).

What about the LC50 (Tetranychus urticae [5]; Tetranychus urticae, SAMB, 144 h) of the same molecule?
Its LC50 is 2.2 µg/mL (≈ 5.35 µM).

And the RatioLC50 (Tetranychus urticae [6])?
Its RatioLC50 is 1.4.

And the LC95 (Tetranychus urticae [7])?
The LC95 was 4 µg/mL (≈ 9.72 µM).

And the LC50 (Tetranychus urticae [7]; Tetranychus urticae, GSS, 144 h)?
Its LC50 is 1.4 µg/mL (≈ 3.4 µM).

And the LC95 (Tetranychus urticae [8])?
Its LC95 is 8 µg/mL (≈ 19.4 µM).

And the LC50 (Tetranychus urticae [8]; Tetranychus urticae, TU4, 144 h)?
Its LC50 is 2.5 µg/mL (≈ 6.08 µM).

And the LC95 (Tetranychus urticae [9])?
Its LC95 is 46.1 µg/mL (≈ 112 µM).

And the LC50 (Tetranychus urticae [9]; Tetranychus urticae, TU11, 144 h)?
Its LC50 is 8.7 µg/mL (≈ 21.2 µM).

And the RatioLC50 (Tetranychus urticae [10])?
The RatioLC50 was 1.1.

And the RatioLC50 (Tetranychus urticae [11])?
Its RatioLC50 is 12.

And the RatioLC50 (Tetranychus urticae [12])?
The RatioLC50 was 2.5.

And the RatioLC50 (Tetranychus urticae [13])?
Its RatioLC50 is 2.2.

What about the RatioLC50 (Tetranychus urticae [14]) of the same molecule?
The RatioLC50 was 0.7.

And the RatioLC50 (Tetranychus urticae [15])?
The RatioLC50 was 0.6.

And the LC95 (Tetranychus urticae [16])?
The LC95 was 4.6 µg/mL (≈ 11.2 µM).

And the LC50 (Tetranychus urticae [16]; Tetranychus urticae, TU5, 144 h)?
The LC50 was 2.5 µg/mL (≈ 6.08 µM).

And the RatioLC50 (Tetranychus urticae [17])?
The RatioLC50 was 1.2.

What about the RatioLC50 (Tetranychus urticae [18]) of the same molecule?
The RatioLC50 was 1.1.

And the RatioLC50 (Tetranychus urticae [19])?
Its RatioLC50 is 0.2.

And the LC95 (Tetranychus urticae [20])?
The LC95 was 32.1 µg/mL (≈ 78 µM).

What about the LC50 (Tetranychus urticae [20]; Tetranychus urticae, mixed strain ALL-14) of the same molecule?
The LC50 was 9.5 µg/mL (≈ 23.1 µM).

What about the LC95 (Tetranychus urticae [21]) of the same molecule?
Its LC95 is 18.6 µg/mL (≈ 45.2 µM).

And the LC50 (Tetranychus urticae [21]; Tetranychus urticae, TU2, 144 h)?
Its LC50 is 3.2 µg/mL (≈ 7.78 µM).

And the LC95 (Tetranychus urticae [22])?
Its LC95 is 43.4 µg/mL (≈ 106 µM).

What about the LC50 (Tetranychus urticae [22]; Tetranychus urticae, TU9, 144 h) of the same molecule?
Its LC50 is 5 µg/mL (≈ 12.2 µM).

What about the LC95 (Tetranychus urticae [23]) of the same molecule?
The LC95 was 23.8 µg/mL (≈ 57.9 µM).

What about the LC50 (Tetranychus urticae [23]; Tetranychus urticae, TU12, 144 h) of the same molecule?
Its LC50 is 5.5 µg/mL (≈ 13.4 µM).

And the LC95 (Tetranychus urticae [24])?
The LC95 was 5 µg/mL (≈ 12.2 µM).

What about the LC50 (Tetranychus urticae [24]; Tetranychus urticae, TU3, 144 h) of the same molecule?
Its LC50 is 1.6 µg/mL (≈ 3.89 µM).

What about the LC95 (Tetranychus urticae [25]) of the same molecule?
Its LC95 is 17.9 µg/mL (≈ 43.5 µM).

And the LC50 (Tetranychus urticae [25]; Tetranychus urticae, TU1, 144 h)?
Its LC50 is 2.7 µg/mL (≈ 6.56 µM).
